Data reported in US8853271B2, “Method for inhibiting activity and/or expression of matrix metalloproteinase, inhibiting phosphorylation of mitogen-activated protein kinase, and/or promoting expression of collagen using tormentic acid” (China Medical University, priority 2010, dated 2014).

What was measured:
[1] = system: matrix metalloproteinase-1; test: Western blotting of matrix metalloproteinase-1 in UV-exposed fibroblasts; assay type: cell-based, human; settings: WS1 fibroblasts exposed to UV for 24 hours, treated for 1 hour before collection
p38 protein = test: Western blotting of phosphorylated p38 in UV-exposed fibroblasts; assay type: cell-based, human; settings: WS1 fibroblasts exposed to UV for 24 hours, treated for 1 hour before collection
Experimental: (§1) The skin “photo-aging” caused by ultraviolet rays may lead to an increase of matrix metalloproteinase in the dermis via the phosphorylation of the mitogen-activated protein kinase (MAPK), and thus a western blotting assay was also carried out in this experiment to observe the effect of tormentic acid on the phosphorylation of mitogen-activated protein kinase in cells; the result is shown in FIG. 5.
(§2) However, when the cells were treated with tormentic acid for 1 hour before collection, the phosphorylation of JNK, ERK, and p38 can be inhibited.

[2] = system: WS1 human skin dermal fibroblasts; test: Test of cell survival rate (MTS assay) under UV exposure; assay type: cell-based; settings: for absorption value (MTS, 490 nm) / survival rate (%): UV 90 mJ/cm^2, 24 hours; for death of the cells (in words): 90 mJ/cm^2 UV
Experimental: The following experiment was carried out by using WS1 human skin dermal fibroblasts (purchased from Food Industry Research and Development Institute, Taiwan). Under exposure to the ultraviolet ray (UV) with the intensity range from 0 mJ/cm^2 to 120 mJ/cm^2, it will not cause death to WS1 human skin dermal fibroblasts. Thus, this experiment was carried out at the UV intensity of 90 mJ/cm^2. First, tormentic acid of various concentrations (0, 0.1, 1.0, 2.0, or 10 μg/ml) was added to a culture medium (comprising α-minimum essential medium, 10% heat-inactivated Fetal Bovine Serum, 100 U/ml penicillin, and 100 μg/ml Streptomycin) containing the WS1 human skin dermal fibroblasts. After the cells were cultured for 24 hours, an MTS (3-(4,5-di-methylthiazol-2-yl)-5-(3-carboxymethoxy phenyl)-2-(4-sulfophenyl)-2H-tetrazolium, commercially available from Promega, Madison, Wis., America) assay was carried out to observe the cell survival rate, and the results are shown in Table 3. The mechanism of the MTS assay is as follows: the dehydrogenase activity of living cells can reduce MTS to a water soluble product that is red purple in color, which has a maximum absorption at a wavelength of 490 nm, and thus, the cell survival rate can be evaluated by absorption values.

c-Jun = test: Western blotting of AP-1 subunit c-Jun in the nucleus; assay type: cell-based, human; settings: WS1 fibroblasts exposed to UV for 24 hours, treated for 1 hour before collection
Excerpt: (§3) The UV exposure of cells induces JNK and p38 to activate c-Jun, which then enters into the nucleus. Then, c-Fos translocates into the nucleus under the regulation of ERK and p38. A c-Jun subunit combines with a c-Fos subunit to form an activator protein 1 (AP-1) gene transcription factor, which then participates in gene expression to promote the transcription of message RNA (mRNA) of matrix metalloproteinase-1 (MMP-1) and reduces the gene expression of procollagen-Iα1 (procollagen α1 of Type I collagen). Thus, a western blotting assay was carried out in this experiment to further observe the protein expression of AP-1 in the nucleus, and the result is shown in FIG. 6. After the WS1 human skin dermal fibroblasts were exposed to UV rays for 24 hours, the expression level of c-Jun and c-Fos in the nucleus were increased. However, when the cells were treated with tormentic acid for 1 hour before collection, the expression of c-Jun and c-Fos were inhibited.

c-Fos = test: Western blotting of AP-1 subunit c-Fos in the nucleus; assay type: cell-based, human; settings: WS1 fibroblasts exposed to UV for 24 hours, treated for 1 hour before collection
Excerpt: as §3

[3] = system: c-Jun N-terminal Kinase (JNK); test: Western blotting of phosphorylated JNK in UV-exposed fibroblasts; assay type: cell-based, human; settings: WS1 fibroblasts exposed to UV for 24 hours, treated for 1 hour before collection
Experimental: as §1, §2

procollagen-1 = test: Western blotting of procollagen-1 in UV-exposed fibroblasts; assay type: cell-based, human; settings: WS1 fibroblasts exposed to UV for 24 hours, treated for 1 hour before collection
[4] = system: bacterial matrix metalloproteinase; test: Decomposition test of gelatin (inhibition of matrix metalloproteinase activity); assay type: biochemical
Experimental: (§4) In addition to collagen decomposing, matrix metalloproteinase (collagenase) has the effect of gelatin decomposing. The property of the fluorescence generation of decomposed gelatin and decomposed commercial substrates of collagenase (purchased from Calbiochem, la Jolla, […]) was used in this example to evaluate the inhibitory effect of tormentic acid on the matrix metalloproteinase.
A 50 μl buffer solution (pH 7.8, contained 50 mM Tris-HCl, 10 mM calcium chloride, and 0.15 M sodium chloride), 30 μl sterile water, and 10 μl bacterial matrix metalloproteinase (0.1 mg/ml, Sigma) were added into an eppendorf tube, and then a 10 μl solution of tormentic acid ([…]) or doxycycline as the positive control was added into the eppendorf tube. The mixture was well mixed, and incubated at room temperature for 60 minutes.
The mixture (30 μl) was drawn and dropped on a circular filter paper covering a gelatin culture medium, and then the filter paper along with the medium was placed into an incubator under 37° C. After incubating for 18 hours, the filter paper was removed. The culture medium was stained with a Coomassie Blue R-250 staining solution (purchased from Amresco company, America), and then was destained with a destaining solution. Because gelatin decomposed by matrix metalloproteinase will not be stained by the Coomassie Blue staining solution, the transparency of the culture medium may reveal the activity of the matrix metalloproteinase. After the culture medium was photographed, the picture was analyzed by an image analysis software (AlphaDigiDoc 1201, purchased from Alpha Innotech Co., America) to calculate the inhibition rate of tormentic acid on the activity of gelatin decomposition of the matrix metalloproteinase.

[5] = system: matrix metalloproteinase (collagenase, Sigma); test: Fluorogenic substrate test (collagenase substrate III); assay type: biochemical
Excerpt: as §4
A specific amount of a solution of the collagenase substrate III (Mcc-Pro-Leu-Gly-Pro-D-Lys (DNP)—OH, purchased from Calbiochem, la Jolla, […]), a matrix metalloproteinase (collagenase, Sigma) solution, tormentic acid or doxycycline as the positive control were mixed and added to a 96 well plate. Then, an ELISA reader was used to determine the […] (405 nm), respectively. The results are shown in Table 2 and FIG. 3, wherein ΔF is the fluorescence value that the basic fluorescence value at time zero has been deducted.

[6] = system: extracellular signal-regulated protein kinase (ERK); test: Western blotting of phosphorylated ERK in UV-exposed fibroblasts; assay type: cell-based, human; settings: WS1 fibroblasts exposed to UV for 24 hours, treated for 1 hour before collection
Experimental: as §1, §2

C[C@@H]1CC[C@]2(C(=O)O)CC[C@]3(C)C(=CC[C@@H]4[C@@]5(C)C[C@@H](O)[C@H](O)C(C)(C)[C@@H]5CC[C@]43C)[C@@H]2[C@]1(C)O [tormentic acid]
expression of matrix metalloproteinase-1 [1]: inhibited
phosphorylation of p38 (p38 protein): inhibited
absorption value (MTS, 490 nm) ([2]; 0.1 μg/ml): 1.08 ± 0.95
survival rate (%) ([2]; 0.1 μg/ml): 103.8%
absorption value (MTS, 490 nm) ([2]; 1.0 μg/ml): 1.10 ± 0.97
survival rate (%) ([2]; 1.0 μg/ml): 105.8%
absorption value (MTS, 490 nm) ([2]; 2.0 μg/ml): 1.10 ± 0.98
survival rate (%) ([2]; 2.0 μg/ml): 105.8%
absorption value (MTS, 490 nm) ([2]; 10.0 μg/ml): 0.83 ± 0.70
survival rate (%) ([2]; 10.0 μg/ml): 79.8%
death of the cells (in words) ([2]; concentration of 10 μg/ml): caused the death of the cells
death of the cells (in words) ([2]; concentration of lower than 2 μg/ml): did not cause the death of the cells
cytotoxicity (in words) ([2]; low concentration): no cytotoxicity
expression of c-Jun in the nucleus (c-Jun): inhibited
expression of c-Fos in the nucleus (c-Fos): inhibited
phosphorylation of JNK [3]: inhibited
expression of procollagen-1 (procollagen-1): increased
Inhibition rate (%) of gelatin decomposing activity ([4]; 25 μg/ml): 3.7%
Inhibition rate (%) of gelatin decomposing activity ([4]; 50 μg/ml): 24.0%
Inhibition rate (%) of gelatin decomposing activity ([4]; 100 μg/ml): 62.7%
Inhibition rate (%) of gelatin decomposing activity ([4]; 200 μg/ml): 75.3%
activity of gelatin decomposition of the matrix metalloproteinase (in words) ([4]; 25-200 μg/ml): significantly inhibited
generation of fluorescence from collagenase substrate III (in words) [5]: can reduce the generation of fluorescence
Inhibition rate (collagenase substrate III decomposition) ([5]; 50 μg/ml): (39%)
ΔF (fluorescence value, time-zero value deducted) ([5]; 50 μg/ml): 54.8 ± 8.4
Inhibition rate (collagenase substrate III decomposition) ([5]; 100 μg/ml): (44.7%)
ΔF (fluorescence value, time-zero value deducted) ([5]; 100 μg/ml): 49.8 ± 7.2
Inhibition rate (collagenase substrate III decomposition) ([5]; 250 μg/ml): (79.1%)
ΔF (fluorescence value, time-zero value deducted) ([5]; 250 μg/ml): 18.8 ± 10.8
phosphorylation of ERK [6]: inhibited
